Experimental data from paper PMC5584945, “Evaluation of robenidine analog NCL195 as a novel broad-spectrum antibacterial agent” (PLoS ONE, 2017).
Like-named read-outs stand apart in the source and are kept apart here.

Experiments:
[1] = system: A. baumannii; experiment: MIC alone and checkerboard with EDTA or polymyxin B; format: cell-based; settings: for MIC: Acinetobacter baumannii
Protocol: (§1) MICs for NCL812 and its analogs (serial two-fold dilutions commencing at 128 μg/ml) were determined (in duplicate) in round bottom 96-well microtitre trays (Sarstedt 82.1582.001), using the broth micro-dilution method recommended by the Clinical and Laboratory Standards Institute (CLSI). […] MIC50, MIC90 and MIC range for NCL812, NCL195 and NCL219 were calculated against each S. pneumoniae, S. aureus or VRE isolate. To assess the potential activity of NCL195 against Gram-negative bacteria, MICs against Acinetobacter spp, E. coli, K. pneumoniae, P. aeruginosa, Proteus spp and Neisseria meningitidis were performed in the presence or absence of 0.08 mM-20 mM EDTA in a standard checkerboard assay.

[2] = system: E. coli; experiment: as above; format: cell-based; settings: for MIC: Escherichia coli, read-out: MIC, agent alone
Protocol: as §1

[3] = system: K. pneumoniae; experiment: as above; format: cell-based; settings: for MIC of NCL195 in combination with EDTA: with EDTA 10 mM; for MIC: Klebsiella pneumoniae, read-out: MIC, agent alone
Protocol: as §1

[4] = system: P. aeruginosa; experiment: as above; format: cell-based; settings: for MIC: Pseudomonas aeruginosa, read-out: MIC, agent alone
Protocol: as §1

[5] = system: S. aureus ATCC 29213; experiment: Macromolecular synthesis inhibition; format: cell-based, Staphylococcus aureus; settings: 0.25 to 8-fold MIC; exponentially growing culture
Protocol: Morphological appearance and morphometric analysis of the cell membrane of S. pneumoniae D39 after exposure to either 1 μg/ml, 4 μg/ml or 16 μg/ml of NCL812 was determined using TEM, as described in S1 File (Supplementary Methods). For S. aureus ATCC 29213, macromolecular (DNA, RNA, protein, cell wall, and lipid) synthesis inhibition studies were performed using concentrations of NCL812 that were equivalent to 0, 0.25, 0.5, 1, 2, 4 or 8-fold the MIC value (4 μg/ml), as detailed in S1 File (Supplementary Methods).
Effect of NCL812 on S. aureus ATCC29213 macromolecular synthesis. […]
A 5% DMSO treated culture served as the “no drug” control for all experiments. […] After washing three times with 5 ml of cold 5% TCA, the filters were rinsed two times with 5 ml 100% ethanol, allowed to dry, and then counted using a Beckman LS3801 liquid scintillation counter.
To test the effect of NCL812 on cell wall synthesis, bacteria were transferred to M9 minimal medium and added to 1.5 ml eppendorf tubes (100 μl/tube) containing various concentrations of test compound or control antibiotics (5 μl) at 20X the final concentration in 100% DMSO as described above. […] After washing three times with 5 ml of 0.1% SDS, the filters were rinsed two times with 5 ml of deionized water, allowed to dry, and then counted using a Beckman LS3801 liquid scintillation counter. […]

Compound: Cc1ccc(/C=N/Nc2cc(N/N=C/c3ccc(C)cc3)nc(N)n2)cc1 [NCL195, 4,6-bis(2-((E)-4-methylbenzylidene)hydrazinyl)pyrimidin-2-amine]
- MIC of NCL195 in combination with EDTA ([1]; A. baumannii ATCC 12457, with EDTA 0.25 mM): 4 mg/L
- MIC of NCL195 in combination with polymyxin B ([1]; A. baumannii ATCC 12457): 0.5 mg/L
- MIC of NCL195 in combination with EDTA ([1]; A. baumannii ATCC 19606, with EDTA 0.5 mM): 2 mg/L
- MIC of NCL195 in combination with polymyxin B ([1]; A. baumannii ATCC 19606): 0.5 mg/L
- MIC ([1]; ATCC12457, A. baumannii ATCC 12457, read-out: MIC, agent alone): > 128 mg/L
- MIC ([1]; ATCC19606, A. baumannii ATCC 19606, read-out: MIC, agent alone): > 128 mg/L
- MIC ([1]; A. baumannii isolates without strain name (one table line per isolate), read-out: MIC): > 128 mg/L
- MIC of NCL195 in combination with EDTA ([2]; E. coli ATCC 11229, with EDTA 0.625 mM): 8 mg/L
- MIC of NCL195 in combination with polymyxin B ([2]; E. coli ATCC 11229): 0.25 mg/L
- MIC of NCL195 in combination with EDTA ([2]; E. coli ATCC 25922, with EDTA 2.5 mM): 4 mg/L
- MIC of NCL195 in combination with polymyxin B ([2]; E. coli ATCC 25922): 0.25 mg/L
- MIC ([2]; ATCC11229, E. coli ATCC 11229): > 128 mg/L
- MIC ([2]; ATCC25922, E. coli ATCC 25922): > 128 mg/L
- MIC of NCL195 in combination with EDTA ([3]; K. pneumoniae ATCC 4352): 4 mg/L
- MIC of NCL195 in combination with polymyxin B ([3]; K. pneumoniae ATCC 4352): 0.5 mg/L
- MIC of NCL195 in combination with EDTA ([3]; K. pneumoniae ATCC 33495): 4 mg/L
- MIC of NCL195 in combination with polymyxin B ([3]; K. pneumoniae ATCC 33495): 0.25 mg/L
- MIC ([3]; ATCC4352, K. pneumoniae ATCC 4352): > 128 mg/L
- MIC ([3]; ATCC33495, K. pneumoniae ATCC 33495): > 128 mg/L
- MIC of NCL195 in combination with EDTA ([4]; P. aeruginosa ATCC 27853, with EDTA 5 mM): 2 mg/L
- MIC of NCL195 in combination with polymyxin B ([4]; P. aeruginosa ATCC 27853): 1 mg/L
- MIC of NCL195 in combination with EDTA ([4]; P. aeruginosa PA01, with EDTA […]): 0.25 mg/L
- MIC of NCL195 in combination with polymyxin B ([4]; P. aeruginosa PA01): 1 mg/L
- MIC ([4]; ATCC27853, P. aeruginosa ATCC 27853): > 128 mg/L
- MIC ([4]; P. aeruginosa PA01): > 128 mg/L

Compound: Cl.N=C(NN=Cc1ccc(Cl)cc1)NN=Cc1ccc(Cl)cc1 [NCL812, 2,2'-bis[(4-chlorophenyl)methylene] carbonimidic dihydrazide hydrochloride]
- Effect on macromolecular synthesis pathways [5]: inhibited DNA (A), RNA (B), protein (C), cell wall (D), and lipid (E) pathways
